Tests used:
Assay type in all cases: in vivo, mouse
B6 male mice [1] = assay: Bone formation after three-month treatment (micro-CT, WNT16 transcripts); details: s.c. 1 mg/kg daily, three months
Procedure: B6 male mice (8-week-old) were daily subjected for three months to either a subcutaneous injection of vehicle (NaCl 0.9%), Dex, CpdX, CpdX(eA), CpdX(eB), CpdX-D3, CpdX-D3(eA) or CpdX-D3(eB) (1 mg/kg body weight, diluted in NaCl 0.9%).
From each animal included in the experiments, one femur and the ipsilateral tibia were dissected and preserved in 70% ethanol for further bone microstructure analysis by micro-CT. The FX Quantum micro-CT scanner (Perkin Elmer) was used to perform measurements at the distal femur and midshaft tibia. All scans were performed with an isotropic voxel size of 10 μm, 160 μA tube current and 90 kV tube voltage.
Morphological 3D measurements were performed using the CTAn software (Bruker). Cortical bone parameters, which were measured in the tibia midshaft, included measures of the bone volume fraction as compared to the total volume, cortical thickness, total area, bone area and marrow area. The region of interest was selected from below the distal tibial crest and continued for 20 slices toward the proximal end of the tibia. Trabecular bone parameters were measured in the distal metaphysis of the femurs and included bone volume fraction, trabecular thickness, trabecular number and trabecular spacing. The region of interest was selected from below the distal growth plate where the epiphyseal cap structure completely disappeared and continued for 100 slices toward the proximal end of the femur.
The statistical significance as compared to vehicle treatment was calculated through one-way ANOVA test followed by Dunn's multiple comparison test, *p<0.05; **p<0.01; ***p<0.001; ****p<0.0001.

B6 male mice [2] = assay: Fatty liver after three-month treatment; details: three months
Procedure: B6 male mice (8-week-old) were daily subjected for three months to a subcutaneous injection of either vehicle (NaCl 0.9%), Dex, CpdX, CpdX(eA), CpdX(eB), CpdX-D3, CpdX-D3(eA) or CpdX-D3(eB) (1 mg/kg body weight, diluted in vehicle). Following this treatment, blood was collected at 10 a.m. by retro-orbital puncture in lithium-heparin coated vials. The plasmatic levels of total cholesterol and bile acids were determined.
Liver samples were harvested. […] RNA transcripts were extracted from liver samples and the transcripts of fatty acid synthase (FASN) and Stearoyl-CoA desaturase 1 (SCD1) genes were analyzed by q-RT-PCR.

Balb/C mice = assay: Skin atrophy after 8-day topical treatment of dorsal skin
Description: To investigate whether, similarly to Dex, a topical administration of CpdX could result in a skin atrophy, Balb/C mice were shaved on the dorsal skin. Ethanol (vehicle), Dex, CpdX or either one of its two enantiomers CpdX(eA) or CpdX(eB), as well as the deuterated form CpdX-D3 or either one of its two enantiomers CpdX-D3(eA) or CpdX-D3(eB), were topically applied onto the dorsal skin for 8 days.
Upon completion of the treatments, RNA transcripts were extracted from dorsal skin samples and the transcripts of Kindlin-1 and REDD1 genes were analyzed by q-RT-PCR. Histological and morphometric analyses of the dorsal skin were also performed.

B6 male mice [3] = assay: Blood glucose and intraperitoneal glucose tolerance test after three-month treatment
Procedure: B6 male mice (8-week-old) were daily subjected for three months to a subcutaneous injection of either vehicle (NaCl 0.9%), Dex, CpdX, CpdX(eA), CpdX(eB), CpdX-D3, CpdX-D3(eA) or CpdX-D3(eB) (1 mg/kg body weight, diluted in vehicle). Mice were over-night-fasted. Mouse blood glucose concentration was measured before (T0) and during two hours (T120) after glucose i.p. injection ([…] body weight).

mice = assay: House dust mite (HDM)-induced asthma-like allergic lung inflammation
Procedure: Glucocorticoids have been (Pearlman et al., 1997. Ann Allergy Asthma Immunol. 78(4):356-62), and are still, widely used in asthma therapy. In order to investigate the possible CpdX anti-inflammatory activity in vivo, mice were sensitized and challenged with either ovalbumin (OVA) or house dust mite (HDM) to induce an asthma-like allergic lung inflammation.
Mice were intranasally sensitized with 1 μg HDM from DO to D4, and further intranasally sensitized with 10 μg HDM on D14 and D21. Mice were then subdivided into eight groups, and on D29, D30 and D31, each mouse was again intranasally challenged with 1 μg HDM. The first seven groups received respectively 0.5 mg/kg of body weight of Dex, CpdX, CpdX(eA), CpdX(eB), CpdX-D3, CpdX-D3(eA) or CpdX-D3(eB), while the eighth group served as a control.
On D32, the airway responsiveness was invasively determined using a computer-controlled small animal ventilator (FlexVent® system, SCIREQ Technologies). Mice were anesthetized with xylazine (15 mg/kg, i.p.), followed 15 minutes later by an i.p. injection of pentobarbital sodium (54 mg/kg). An 18-gauge metal needle was then inserted into the trachea, each mouse was connected to the FlexVent® ventilator and quasi-sinusoidally ventilated with a tidal volume of 10 mL/kg at a frequency of 150 breaths/minute and a positive end-expiratory pressure of 2 cm H2O, in order to achieve a mean lung volume close to spontaneous breathing. After baseline measurement, mice were challenged for 10 seconds with a saline aerosol and, at 4.5-minute intervals, with 50 mg/mL methacholine. Airway resistance and elastance were expressed as cmH20·s/mL and cmH2O/mL respectively.
The lung allergic inflammation was assessed by examination of the bronchoalveolar lavage (BAL) fluid from each of these HDM-challenged mice. The total BAL cells, eosinophils, neutrophils, macrophages and lymphocytes were counted. RNA transcripts were extracted from lung samples. RNA transcripts of IL-1β, IL-6, IL-4, IL-5, IL-13, Eotaxin, CCL4, IL-10 and TNFα were analyzed by q-RT-PCR. Lung tissues were harvested and histological (with H&E staining) and immunohistochemical analyses were also carried out (with eosinophil-specific and neutrophil-specific antibodies).

COc1ccc(F)cc1C(C)(C)CC(O)(CNc1ccc2c(c1)COC2=O)C(F)(F)F (racemic) [CpdX, 5-[4-(5-fluoro-2-methoxyphenyl)-2-hydroxy-4-methyl-2-(trifluoromethyl)pentylamino]-isobenzofuran-1(3H)-one]
bone formation in cortical and trabecular bones (B6 male mice [1]): did not affect
lipid deposition in the liver (B6 male mice [2]; 5% Red oil staining of frozen sections): not observed
transcripts of fatty acid synthase (FASN) and Stearoyl-CoA desaturase 1 (SCD1) in liver (B6 male mice [2]; q-RT-PCR, 'but not' = no increase): but not
blood cholesterol and bile acids' levels (B6 male mice [2]; 'but not' = no clear increase): but not
epidermal thickness (Balb/C mice; eight-day topical treatment, morphometric analysis): not significantly decreased
skin atrophy, histological analysis (Balb/C mice; eight-day topical treatment, 'in marked contrast' = no severe atrophy as with Dex): in marked contrast
transcription of the REDD1 gene in dorsal skin (Balb/C mice; topical 8 days, 1 nmole/cm^2, 'but not' = not increased): but not
control of the blood glucose level (B6 male mice [3]; three months, conclusion): does not significantly affect
blood glucose level in intraperitoneal glucose tolerance test (IPGTT) (B6 male mice [3]; two-hour period after glucose i.p. injection (2 mg/kg body weight)): no significant difference
number of neutrophils and macrophages in BAL (mice; 0.5 mg/kg on D29-D31, BAL on D32): No significant change
total number of BAL cells, eosinophils and lymphocytes (mice; 0.5 mg/kg on D29-D31, BAL on D32, vs control group): significantly decreased
eosinophils in lung, immunohistochemistry (mice; eosinophil-specific antibodies, data not shown): decreased
peribronchiolar and perivascular inflammatory cell infiltration (mice; histology of lung paraffin sections): strongly decreased
neutrophils in lung, immunohistochemistry (mice; neutrophil-specific antibody, data not shown): no significant change
expressions of IL-1β, IL-6, IL-4, IL-5, IL-13, Eotaxin and CCL4 (pro-inflammatory genes) in lung samples (mice; q-RT-PCR, D32): significantly and similarly decreased
expressions of IL-10 and TNFα in lung samples (mice; q-RT-PCR, data not shown): not affected
HDM-induced airway hyperresponsiveness (AHR), airway resistance and elastance (mice; response to methacholine 50 mg/mL, D32): similarly reduced

Reference: patent US20190151283A1, “NON-STEROIDAL SELECTIVE GLUCOCORTICOID RECEPTOR AGONISTIC MODULATORS (SEGRAMs) AND USES THEREOF” (ASSOCIATION POUR LA RECHERCHE À L'IGBMC (ARI), priority 2017, published 2019)
